From PMC10041561 (JID Innovations, 2022)

Assays:
PTGS2 (COX-2) = target: T1, PTGS2 (COX-2) (Homo sapiens, UniProt P35354); assay: PTGS2; format: biochemical, bovine/human; details: COX-2 Inhibition Mean IC50, mean of replicates 1-2 (Fig 16g)
T1 sequence (P35354 18-604): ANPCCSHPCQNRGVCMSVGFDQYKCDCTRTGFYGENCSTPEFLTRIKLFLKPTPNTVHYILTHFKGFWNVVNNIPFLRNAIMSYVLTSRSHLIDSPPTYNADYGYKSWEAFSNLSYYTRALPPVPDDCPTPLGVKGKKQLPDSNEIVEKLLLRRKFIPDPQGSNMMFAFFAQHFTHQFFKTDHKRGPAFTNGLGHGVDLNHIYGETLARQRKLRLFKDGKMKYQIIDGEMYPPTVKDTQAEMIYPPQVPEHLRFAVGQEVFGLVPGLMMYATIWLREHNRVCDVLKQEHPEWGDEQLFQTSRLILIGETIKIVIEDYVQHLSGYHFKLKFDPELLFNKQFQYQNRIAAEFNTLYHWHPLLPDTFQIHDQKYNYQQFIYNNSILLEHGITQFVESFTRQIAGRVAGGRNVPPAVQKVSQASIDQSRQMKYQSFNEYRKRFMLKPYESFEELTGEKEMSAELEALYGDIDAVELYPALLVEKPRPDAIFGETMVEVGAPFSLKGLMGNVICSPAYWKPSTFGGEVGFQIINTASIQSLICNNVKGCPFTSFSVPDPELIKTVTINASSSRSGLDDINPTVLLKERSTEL

[1] = test system: reconstituted human epidermis (RHE) tissues; assay: Cortisol in RHE-conditioned medium; format: cell-based; details: 48 hours, with or without cell viability standardization
[2] = test system: reconstituted human epidermis (RHE) tissues; assay: IL-8 levels in RHE-conditioned medium; format: cell-based; details: 48 hours
[3] = test system: TNF-stimulated neonatal human epidermal KCs; assay: Microarray gene expression in TNF-stimulated keratinocytes; format: cell-based
CB1 receptor = details: ref Vučković et al., 2018; cited from earlier work
CB2 receptor = details: ref Vučković et al., 2018; cited from earlier work
[4] = ref Nelson et al., 2020; cited from earlier work
[5] = ref Jaidee et al., 2021; cited from earlier work

Row | IC50 (PTGS2 (COX-2)) [µM] | Compound | cortisol levels in RHE-conditioned medium [1] | IL-8 levels in RHE-conditioned medium [2] | average increase in the expression of unhealthy skin signature genes ([3]; TNF-stimulated KCs) [%] | number of genes decreased ([3]; vs TNF, FDR < 0.10 with FC < 0.80) [genes] | number of genes increased ([3]; vs TNF, FDR < 0.10 with FC > 1.25) [genes] | number of genes with altered expression ([3]; vs TNF, FDR < 0.10 with FC > 1.25 or FC < 0.80) [genes] | affinity for the CB1 receptor (CB1 receptor) | affinity for the CB2 receptor (CB2 receptor) | octanol-water partition coefficient [4] | stability at room temperature [5]
1 | 12.9 | C=C[C@@](C)(/C=C/c1ccc(O)cc1)CCC=C(C)C [BAK, bakuchiol] | significantly decreased cortisol levels | decreased IL-8 | – | – | – | – | – | – | – | –
2 | – | C=C(C)[C@@H]1CCC(C)=C[C@H]1c1c(O)cc(CCCCC)cc1O [CBD, cannabidiol] | not observed | – | 5 | 114 | 205 | 319 | little affinity | little affinity | high | unstable at room temperature
